Measurements from patent US4243671A, “Inhibition of thromboxane synthetase formation and arachidonic acid-induced platelet aggregation and bronchoconstriction” (E. R. Squibb & Sons, Inc., priority 1979, dated 1981).

How the values were obtained:
thromboxane synthetase [1] = conditions: cited from earlier work
[2] = system: arachidonic acid induced platelet aggregation; experiment: Inhibition of arachidonic acid induced platelet aggregation in platelet-rich plasma; type: cell-based; conditions: arachidonic acid 800 μM, human PRP
Experimental: Venous blood is collected from the antecubital vein of human volunteers who are drug free for at least one week. The blood is collected by gravity into plastic transfer bags containing 0.38% sodium citrate as the anticoagulant. Platelet-rich plasma (PRP) is prepared by centrifuging the citrated blood at 200×g for 10 min at 25° C. Platelet-poor plasma (PPP) is obtained by centrifuging the PRP at 2500×g for 30 min at 25° C. Platelet aggregation is studied photometrically (Boron, Nature 194:927-929,1962) using a Chronolog aggregometer connected to a linear recorder. The test compound is dissolved in methanol and preincubated with PRP for 2.5 minutes at 37° C. Arachidonic acid (800 μM) dissolved in 0.1 M Tris-HCl buffer, pH 8.5, is then added and the optical transmission recorded for at least 3 minutes. The rate of increase in optical transmission, which is a measure of the initial velocity of aggregation, is measured by determining the slope of the steepest part of the curve.

Thromboxane synthetase [3] = biological target: T1, Thromboxane synthetase (Homo sapiens, UniProt P24557); experiment: Inhibition of thromboxane synthetase (platelet membrane preparation, 14C-arachidonic acid to thromboxane-B2); type: biochemical
T1 construct: from tissue; host or cells: blood platelets from fresh platelet-rich plasma (PRP), lysed membrane suspension
T1 sequence (P24557 1-533): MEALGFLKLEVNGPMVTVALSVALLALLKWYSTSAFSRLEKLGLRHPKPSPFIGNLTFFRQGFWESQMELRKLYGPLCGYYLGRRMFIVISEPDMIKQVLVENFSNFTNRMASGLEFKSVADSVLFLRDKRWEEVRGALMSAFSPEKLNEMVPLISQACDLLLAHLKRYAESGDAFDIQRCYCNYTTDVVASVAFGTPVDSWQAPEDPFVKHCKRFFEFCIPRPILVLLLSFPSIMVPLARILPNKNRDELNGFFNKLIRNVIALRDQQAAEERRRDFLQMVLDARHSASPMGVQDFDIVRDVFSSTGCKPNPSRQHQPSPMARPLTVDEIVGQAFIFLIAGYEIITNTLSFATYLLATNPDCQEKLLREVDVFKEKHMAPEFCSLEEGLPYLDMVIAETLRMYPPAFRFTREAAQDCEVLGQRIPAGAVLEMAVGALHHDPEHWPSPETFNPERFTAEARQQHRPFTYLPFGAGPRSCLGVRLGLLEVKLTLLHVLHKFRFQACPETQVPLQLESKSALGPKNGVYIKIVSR
Experimental: Thromboxane synthetase is prepared from fresh PRP according to the procedure of Nijkamp et al, supra. Briefly, a platelet pellet is washed in physiological saline, and the platelets lysed by a combination of freeze-thaw cycles and homogenizations. This platelet membrane suspension is divided into small aliquots and stored at -70° C. until used. Thromboxane synthetase activity is determined by incubating the platelet preparation with ^14 C-arachidonic acid in a reaction mixture containing epinephrine, reduced glutathione, and Tris-HCl buffer, pH 7.5. Thromboxane synthetase activity is determined in the presence of the test compound dissolved in methanol, or of the methanol control. The reaction is carried out for 3-5 minutes at 37° C. and stopped by the addition of 2N HCl. In some instances, aliquots of the reaction mixtures are spotted directly on Quantum thin layer plates for thin layer chromatography of reaction mixture components. In other experiments, the lipids in the reaction mixture are extracted into ethyl acetate. After the ethyl acetate is taken to dryness, the lipid residue is dissolved in ethanol and aliquots spotted on the thin layer plates. In either instance, the plates are developed using chloroform:methanol:acetic acid (90:5:5) as solvent system. […] The radioactivity that migrates in the area of thromboxane-B2 is then determined by liquid scintillation spectrometry.

[4] = system: arachidonic acid-induced bronchoconstriction; experiment: Inhibition of arachidonic acid-induced bronchoconstriction in the anesthetized guinea pig; type: in vivo
Experimental: (§1) Male guinea pigs weighing 480-520 g are anesthetized with urethane (1.5 g/kg, i.p.). Spontaneous respiration is arrested with succinylchloline chloride (1.5 mg/kg, i.p.). The guinea pigs are artificially ventilated with a Palmer respiration pump through a tracheal cannula at a rate of 72 strokes/min and a stroke volume of 3 ml.
(§2) Pulmonary resistance and dynamic compliance are determined by the method described by Amdur and Mead, "Mechanics of Respiration in Unanesthetized Guinea Pigs", Amer. J. Physiol. 192, 364-368, as modified by Giles et al. (1973), "The Bronchodilator and Cardiac Stimulant Effects of Th 1165A, Salbutamol, and Isoproterenol", J. Pharmacol. Exp. Ther. 186, 472-481. Respiratory flow is measured with a Fleisch pneumotachograph (No. 000) and a Validyne (MP 45) differential pressure transducer. Transpulmonary pressure is determined by monitoring the difference between pressure in the external end of a tracheal cannula and the pressure in the pleural cavity by means of a Validyne MP 45 differential pressure transducer. The flow and pressure signals are fed into an on-line analog Pulmonary Mechanics Computer (Buxco Electronics, Inc.) which provides calculation of pulmonary resistance and dynamic compliance. The computer output of flow, pressure, volume, resistance and dynamic compliance are recorded on a Brush 260 recorder. Blood pressure is measured from a carotid artery with a Statham P23Db transducer and heart rate is derived from the pulse pressure. Both blood pressure and heart rate are recorded with the Buxco pulmonary mechanics computer. All parameters are digitalized by a Data Logger, Model DL-12 Buxco electronics and recorded on a Texas Instrument silent 700 ASR printer.
Arachidonic acid (AA) (0.25 mg/kg i.v.) is administered to groups of 4-5 guinea pigs 15 minutes before and 3 and 10 minutes after the administration of the test compound (0.1, 0.3 and 1.0 mg/kg i.v.). The administration of AA causes substantial increases in pulmonary resistance (R) and decrease in dynamic compliance (C) of 70% and 50% respectively. […] The inhibitory effect of the test compound lasts for less than 10 minutes.

[5] = system: histamine-induced bronchoconstriction; experiment: Specificity test: histamine-induced bronchoconstriction in the anesthetized guinea pig; type: in vivo; conditions: 1.0 mg/kg i.v.; histamine 5.0 μg/kg i.v.
Experimental: as §1
as §2, with “The flow and pressure signals are fed into an on-line analog Pulmonary Mechanics Computer (Buxco Electronics, Inc.) which provides calculation of pulmonary resistance and dynamic compliance.” left out, “All parameters are digitalized by a Data Logger, Model DL-12 Buxco electronics and recorded on a Texas Instrument silent 700 ASR printer.” left out

IC50 ([2]; read-out: I50 (concentration to achieve 50% inhibition) of platelet aggregation) [µM] | inhibition at 1000 µM (Thromboxane synthetase [3]; at 1000 μM) [%] | IC50 (Thromboxane synthetase [3]; read-out: I50 thromboxane synthetase) [µM] | duration of hypertension ([4]; 0.1, 0.3 and 1.0 mg/kg i.v.) | Compound | inhibition of thromboxane synthetase (literature) (thromboxane synthetase [1]) | inhibition at 1000 µM ([2]; screening concentration 1 mM, read-out: effectiveness in inhibiting platelet aggregation) [%] | effect of compound alone on R, C or heart rate ([4]; 0.1, 0.3 and 1.0 mg/kg i.v.) | effect on blood pressure ([4]; 0.1, 0.3 and 1.0 mg/kg i.v.) | duration of inhibitory effect on AA-induced changes ([4]; 0.1-1.0 mg/kg i.v.) | effect on AA-induced changes in pulmonary resistance (R) and dynamic compliance (C) ([4]; 0.1-1.0 mg/kg i.v. given before AA 0.25 mg/kg i.v.) | effect on histamine-induced increases in R and decreases in C [5]
– | – | – | – | c1c[nH]cn1 [imidazole] | specific inhibitor | – | – | – | – | – | –
30 | 83 | 30 | up to 30 minutes | C(=Cc1ccccc1)Cn1ccnc1.Cl [test compound, 1-(3-phenyl-2-propenyl)-1H-imidazole, hydrochloride (1:1)] | – | 100 | does not significantly alter | profound hypertension of long duration | less than 10 minutes | significant dose dependent decrease | not altered
